US20180110795A1, “COMPOSITIONS AND METHODS FOR DETECTING AND TREATING PERIODONTAL DISEASE” (THE FORSYTH INSTITUTE, priority 2015, published 2018)

Legend:
Assay type in all cases: cell-based
[1] = test system: oral plaque; test: Plaque bacteria plated on blood agar and cultured with or without TPP; settings: plaque bacteria from four human subjects on blood agar, various concentrations of TPP
Description: Dental plaque is a biofilm that builds up on teeth and contains bacteria associated with cavities, gingivitis, and periodontitis. Plaque samples were obtained from four human subjects. Plaque bacteria from each subject was plated on blood agar and cultured in the presence or absence of various concentrations of Sodium tripolyphospate (TPP), which inhibits Cob(I)alamin adenosyltransferase.

[2] = test system: oral microbial community; test: Principal component analysis of active community composition by 16S rRNA genes from cultures of plaque; settings: cultures of plaque from a human subject, samples at 0, 3, 9 and 18 hours, all concentrations
Description: Principal component analysis was used to analyze changes in oral microbial community composition. Results of an analysis of the active community composition isolated from a human subject was carried out by analysis of 16S rRNA genes from cultures of plaque. The panel of species identified included 500 different species. Samples from the culture were taken at 0, 3, 9 and 18 hours.

[3] = test system: Rothia dentocariosa; test: Active fraction of microbes by rRNA analysis in liquid culture of oral plaque; settings: TPP at concentrations as low as 25 mM
From the text: (§1) Oral plaque containing Streptococcus sanguinis was obtained from a human subject and cultured in liquid culture in the presence or absence of TPP. S. sanguinis is a gram positive bacteria that binds to the surface if the teeth, where it acts as a tether for the attachment of other bacteria that form dental plaque, and contributes to the development of caries and periodontal disease. S. Sangunis has all of the genes required for anaerobic cobalamin biosynthesis.
(§2) Microbes exist in a range of metabolic states (e.g., dormant, active and growing) and analysis of ribosomal RNA (rRNA) is frequently employed to identify the ‘active’ fraction of microbes in samples. […] This is of particular interest given that other bacterial species may utilize and or depend on the cobalamin synthesized by S. Sanguinis, thus making this species a keystone esential to maintain a mature biofilm.

[4] = test system: S. Genus probe 1; test: as above; settings: TPP at concentrations as low as 25 mM
From the text: as §1, §2

[5] = test system: S. intermedius; test: as above; settings: TPP at concentrations as low as 25 mM
From the text: as §1, §2

[6] = test system: Solobacterium moorei; test: as above; settings: TPP at concentrations as low as 25 mM
From the text: as §1, §2

[7] = test system: Streptococcus sanguinis; test: as above; settings: three hours of incubation
From the text: as §1, §2

`O=P(O)(O)OP(=O)(O)OP(=O)(O)O` [TPP, sodium tripolyphosphate] was tested, and the oral plaque growth [1] was “completely inhibited oral plaque growth in a dose dependent manner”, the “change in composition of bacterial communities” value [2] was “affected all of the bacterial communities in similar ways at all concentrations” and the “activity of Rothia dentocariosa” value [3] was “significantly reduced”. The “activity of S. Genus probe 1” value [4] was “significantly reduced”, the “activity of S. intermedius” value [5] was “significantly reduced” and the “activity of Solobacterium moorei” value [6] was “significantly reduced”. The “fraction of active S. Sanguinis vs control with no TPP” value ([7]; 25 mM TPP) was “significantly lower” and the “fraction of active S. Sanguinis vs control with no TPP” value ([7]; 50 mM TPP) was “significantly lower”.
